Test results taken from patent US10143748B2, “B-cell reduction using CD37-specific and CD20-specific binding molecules” (Emergent Product Development Seattle, LLC, priority 2005, dated 2018).
Entries after “also recorded” stand apart in the source; their conditions may differ.

Assays:
Ramos tumors = assay: Ramos tumor xenograft in nude mice; type: in vivo, mouse
Description: Mouse tumor xenograft studies exploring combination therapies were performed using nude mice (Harlan) and Ramos or Daudi human tumor lines. Ramos or Daudi tumor cells were grown in T150 flasks in IMDM/10% FBS until they reached 80% confluency. Five million (5×10^6) cells were used as a tumor inoculum per mouse. Cells were injected subcutaneously in the right flank using PBS in a total volume of 0.1 ml or 5.0×1 0^7/ml. Nude mice were allowed to develop tumors and sorted into groups based on tumor size/volume. For each treatment group, 12 mice with a mean tumor volume of approximately 222 mm^3 (range =152-296mm^3) were used. Some mean tumor volumes ranging from 237-251 mm^3 were also used. […] Tumor volume was measured daily with calipers until completion of the experiment (sacrifice or regression).
Mouse tumor xenograft studies were performed using nude mice (Harlan) and Ramos or Daudi human tumor lines. Three different studies were performed based on tumor type and tumor size at the time of treatment with the TRU-016 or other test reagent. Ramos or Daudi tumor cells were grown and (5×10^6) cells were injected subcutaneously in the right flank to inoculate each treated mouse with the tumor. Nude mice were allowed to develop tumors and sorted into groups based on tumor size/volume. In the first study, for each treatment group, 12 mice with a mean tumor volume of 155-237 mm^3 were used. […] Tumor volume was measured daily with calipers until completion of the experiment (sacrifice or regression).
Ramos and Daudi tumor cells were separately grown and (5×10^6) cells were injected subcutaneously in the right flank of mice to initiate the formation of mouse tumor xenografts. After tumor development, mice were sorted into groups based on tumor size/volume (day 0). […] Tumor volume was blindly measured three times weekly with calipers until completion of the experiment (sacrifice or regression).

CD37 = biological target: T1, CD37 (Homo sapiens, UniProt P11049); assay: competitive binding / FACs cross blocking of FITC anti-CD37 reagents on BJAB cells; design: BJAB-cells, a B lymphoblastoid B-cell line, (courtesy of Ed Clark, University of Washington); endogenous in cells; host or cells: BJAB B lymphoblastoid cell line; conditions: unlabeled blocking reagent, FIG. 2
T1 sequence (P11049 1-281): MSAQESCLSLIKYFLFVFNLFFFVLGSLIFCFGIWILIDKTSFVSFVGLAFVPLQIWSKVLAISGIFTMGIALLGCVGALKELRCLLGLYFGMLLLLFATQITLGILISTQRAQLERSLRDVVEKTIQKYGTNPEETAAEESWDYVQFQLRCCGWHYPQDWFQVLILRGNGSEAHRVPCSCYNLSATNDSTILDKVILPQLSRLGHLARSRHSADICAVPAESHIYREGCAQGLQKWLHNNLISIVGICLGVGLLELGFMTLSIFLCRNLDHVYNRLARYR
Description: FITC labeled antibody conjugates were titrated from 10 μg/mL to 10 pg/mL in an initial binding study to determine the optimal amounts to use in the blocking studies. The level chosen was just below saturating amounts, and was kept constant in the subsequent assays, while levels of blocking antibody were increased over a 10-fold range. Data were plotted as percent of maximal binding versus concentration of blocking antibody, so that higher levels indicate less efficient blocking, while lower levels indicate more efficient blocking activity.
BJAB-cells, a B lymphoblastoid B-cell line, (courtesy of Ed Clark, University of Washington) were then stained with a panel of various clones of anti-CD37 MAbs, including MB371, BL14, NMN46, IPO24, HH1, WR17, and the TRU-016 SMIP.
For competitive binding assays, 2.5×10^5 BJAB cells were incubated in 96-well V-bottom plates in staining media (PBS with 2% mouse sera) with the FITC-conjugated anti-CD37 MAbs at 1.25 μg/mL in the presence of unconjugated anti-CD37 MAb at the indicated concentrations (2.5, 1.25, 0.6, or 0.3 μg/ml) or staining media for 45 minutes on ice in the dark. Blocking antibodies and FITC labeled antibody conjugates were added to reactions prior to addition of cells. […] The cells were analyzed by flow cytometry using a FACsCalibur instrument and CellQuest software (BD Biosciences, San Jose, Calif.). […]

[1] = biological target: T2, CD37 cell surface receptor (Homo sapiens, UniProt P11049); assay: TRU-016 binding to human PBMC, two-color flow cytometry
T2 construct: Human PBMCs were isolated over LSM density gradients and incubated with unconjugated TRU-016; endogenous in cells; host or cells: human PBMC (CD19-positive B lymphocyte gate)
T2 sequence (P11049 1-281): T1 sequence (P11049 1-281)
Description: Experiments were also performed to determine that the binding specificity of the parent antibody to the CD37 cell surface receptor is preserved in TRU-016. Human PBMCs were isolated over LSM density gradients and incubated with unconjugated TRU-016 and PE-conjugated anti-human CD19. Cells were washed and incubated with 1:100 FITC GAH IgG (Fc specific) for 45 minutes on ice. Cells were washed and analyzed by two-color flow cytometry on a FACsCalibur instrument using Cell Quest software. Cells were gated for B lymphocytes or non-B lymphocytes by CD19 staining.
With increasing concentrations of TRU-016, the FITC signal on the B lymphocyte (CD19 positive gate) increased rapidly from 0.01-1.0 μg/ml, until it reached saturation at approximately 1 μg/mL or a mean fluorescence intensity (MFI) of 1000. […] Thus, the staining pattern of the G28-1 murine monoclonal antibody is preserved with TRU-016 (FIG. 1C).

G28-1 scFv VH11S(SSC—P)H WCH2 WCH3 [TRU-016]
long-term complete regression of tumors (tumor regression rate) (Ramos tumors; Ramos tumors, 200 μg, pooled data from 3 experiments): 20% | average tumor volume after treatment (Ramos tumors; Ramos, 200 μg/mouse IV days 0, 2, 4, 6, 8, versus huIgG): smaller than that observed using the negative control (huIgG) | Median Survival Time (Ramos tumors; established Ramos tumors, 200 μg): 16 days | Percentage of Tumor- Free Mice at Day 90 (Ramos tumors; established Ramos tumors, 200 μg, IV days 0, 2, 4, 6, 8): 20% | survival time / median survival time (Ramos tumors; established Ramos tumors, combination vs TRU-016 p=0.028, vs rituximab p=0.045): inhibition of tumor growth and improved survival times equivalent to rituximab | tumor growth and median survival (Ramos tumors; mice with the smaller Ramos tumors): inhibition of tumor growth and increased median survival times | blocking activity (inhibition of binding of FITC anti-CD37 conjugates) (CD37): highest level of blocking activity | mean fluorescence intensity (MFI) at saturation ([1]; B lymphocyte (CD19 positive gate)): 1000 | staining of / binding to the non-B lymphocyte population ([1]; CD19 negative gate): much lower level of binding; also recorded: detectable, but very low | binding to human peripheral blood B lymphocytes ([1]; flow cytometry, FIG. 1C): high level, specific binding | concentration at which FITC signal on B lymphocytes (CD19 positive gate) reached saturation ([1]; human PBMC, FITC GAH IgG detection): approximately 1 μg/mL
